The results in this text go back to US20230093861A1, “RAPAMYCIN ANALOGS AS MTOR INHIBITORS” (Revolution Medicines, Inc., priority 2017, published 2023).

Structures are written as SMILES. Like-named read-outs stand apart in the source and are kept apart here.

Assay [1] deals with P-P70S6K (T389). Briefly: Cell based AlphaLISA assay, inhibition of P-P70S6K (T389) (mTORC1 substrate phosphorylation) in MDA-MB-468 cells. To be noted: Homo sapiens, 4 h, AlphaLISA, two to four hours at 37° C., read-out: pIC50 for Inhibition of mTORC1 and mTORC2 Substrate Phosphorylation, P-P70S6K-(T389) (converted). Here is the method: (§1) Cell Based AlphaLISA Assays for Determining IC50 for Inhibition of P-Akt (S473), P-4E-BP1 (T37/46), and P-P70S6K (T389) in MDA-MB-468 Cells
(§2) mTOR Kinase Cellular Assay
(§3) To measure functional activity of mTORC1 and mTORC2 in cells the phosphorylation of 4EBP1 (Thr37/46) and P70S6K (Thr389), and AKT1/2/3 (Ser473) was monitored using AlphaLisa SureFire Ultra Kits (Perkin Elmer). […] Incubations were terminated by removal of the assay buffer and addition of lysis buffer provided with the assay kit. Samples were processed according to the manufacturer's instructions. The Alpha signal from the respective phosphoproteins was measured in duplicate using a microplate reader (Envision, Perkin-Elmer or Spectramax M5, Molecular Devices). Inhibitor concentration response curves were analyzed using normalized IC50 regression curve fitting with control based normalization.
A general note: In Alpha technology, singlet oxygen from a donor bead excites a nearby acceptor bead.

For assay [2], the system named is P-4E-BP1 (T37/46). Briefly: Cell based AlphaLISA assay, inhibition of P-4E-BP1 (T37/46) (mTORC1 substrate phosphorylation) in MDA-MB-468 cells. Particulars: Homo sapiens, AlphaLISA, two to four hours at 37° C., read-out: pIC50 for Inhibition of mTORC1 and mTORC2 Substrate Phosphorylation, P-4E-BP1-(T37/46) (converted). The protocol: as §1, §2, §3
The subject of assay [3] is P-Akt (S473). Briefly: Cell based AlphaLISA assay, inhibition of P-Akt (S473) (mTORC2 substrate phosphorylation) in MDA-MB-468 cells. Particulars: Homo sapiens, AlphaLISA, two to four hours at 37° C., read-out: pIC50 for Inhibition of mTORC1 and mTORC2 Substrate Phosphorylation, p-AKT 1/2/3 -(S473) (converted). Here is the method:
as §1, §2, §3

Regarding `CO[C@H]1C[C@@H]2CC[C@@H](C)[C@@](O)(O2)C(=O)C(=O)N2CCCC[C@H]2C(=O)O[C@H]([C@H](C)C[C@@H]2CC[C@H](n3cc(COC(=O)NCCOCCOCCOCCC(=O)NCCOCCOCCOCCC(=O)NCCCCn4nc(-c5cc6cc(O)ccc6[nH]5)c5c(N)ncnc54)nn3)[C@H](OC)C2)C/C(=N/OC(C)(C)C)[C@H](C)/C=C(\C)[C@@H](O)[C@@H](OC)C(=O)[C@H](C)C[C@H](C)/C=C/C=C/C=C/1C` [Example 161], the IC50 in assay [1] is more than 1000 nM; in assay [2] (MDA-MB-468, 4 h), more than 1000 nM; in assay [3] (MDA-MB-468, 4 h), more than 1000 nM.

Regarding `CO[C@H]1C[C@@H]2CC[C@@H](C)[C@@](O)(O2)C(=O)C(=O)N2CCCC[C@H]2C(=O)O[C@H]([C@H](C)C[C@@H]2CC[C@@H](OCCCCc3cn(CCOCCOCCOCCOCCOCCOCCOCCOCCC(=O)NCCCCn4nc(-c5cccc(C(=O)NC6=NCCS6)c5)c5c(N)ncnc54)nn3)[C@H](OC)C2)CC(=O)[C@H](C)/C=C(\C)[C@@H](O)[C@@H](OC)C(=O)[C@H](C)C[C@H](C)/C=C/C=C/C=C/1C` [Example 40], the IC50 in assay [1] is less than 1 nM; in assay [2] (MDA-MB-468, 4 h), less than 3.16 nM; in assay [3] (MDA-MB-468, 4 h), 31.6 to 1000 nM.

Turning to `CO[C@H]1C[C@@H]2CC[C@@H](C)[C@@](O)(O2)C(=O)C(=O)N2CCCC[C@H]2C(=O)O[C@H]([C@H](C)C[C@@H]2CC[C@H](n3cc(COC(=O)NCCOCCOCCOCCC(=O)NCCOCCOCCC(=O)NCCCCn4nc(-c5ccc6oc(N)nc6c5)c5c(N)ncnc54)nn3)[C@H](OC)C2)C[C@@H](OC)[C@H](C)/C=C(\C)[C@@H](O)[C@@H](OC)C(=O)[C@H](C)C[C@H](C)/C=C/C=C/C=C/1C` [Example 143], the IC50 in assay [1] is 1 to 10 nM; in assay [2] (MDA-MB-468, 4 h), 31.6 to 1000 nM; in assay [3] (MDA-MB-468, 4 h) it was more than 1000 nM.

As for `CO[C@H]1C[C@@H]2CC[C@@H](C)[C@@](O)(O2)C(=O)C(=O)N2CCCC[C@H]2C(=O)O[C@H]([C@H](C)C[C@@H]2CC[C@H](n3cc(CCCC(=O)NCCOCCOCCOCCC(=O)NCCOCCOCCOCCC(=O)NCCCCn4nc(-c5cc6cc(O)ccc6[nH]5)c5c(N)ncnc54)nn3)[C@H](OC)C2)CC(=O)[C@H](C)/C=C(\C)[C@@H](O)[C@@H](OC)C(=O)[C@H](C)C[C@H](C)/C=C/C=C/C=C/1C` [Example 131], the IC50 in assay [1] was 1 to 10 nM; in assay [2] (MDA-MB-468, 4 h), 31.6 to 1000 nM; in assay [3] (MDA-MB-468, 4 h) it was 31.6 to 1000 nM.

`CO[C@H]1C[C@@H]2CC[C@@H](C)[C@@](O)(O2)C(=O)C(=O)N2CCCC[C@H]2C(=O)O[C@H]([C@H](C)C[C@@H]2CC[C@@H](OCCCCc3cn(CCOCCOCCOCCOCCOCCOCCC(=O)NCCCCn4nc(-c5cc6cc(O)ccc6[nH]5)c5c(N)ncnc54)nn3)[C@H](OC)C2)CC(=O)[C@H](C)/C=C(\C)[C@@H](O)[C@@H](OC)C(=O)[C@H](C)C[C@H](C)/C=C/C=C/C=C/1C` [Example 43]: the IC50 in assay [1] was less than 1 nM; in assay [2] (4 h) it was 31.6 to 1000 nM; in assay [3] (4 h), 31.6 to 1000 nM.

With `CO[C@H]1C[C@@H]2CC[C@@H](C)[C@@](O)(O2)C(=O)C(=O)N2CCCC[C@H]2C(=O)O[C@H]([C@H](C)C[C@@H]2CC[C@@H](OCCCCc3cn(CCOCCOCCOCCOCCOCCOCCC(=O)N(C)CCCCn4nc(-c5ccc6oc(N)nc6c5)c5c(N)ncnc54)nn3)[C@H](OC)C2)CC(=O)[C@H](C)/C=C(\C)[C@@H](O)[C@@H](OC)C(=O)[C@H](C)C[C@H](C)/C=C/C=C/C=C/1C` [Example 84], the IC50 in assay [1] was less than 1 nM; in assay [2] (MDA-MB-468, 4 h) it was less than 3.16 nM; in assay [3] (MDA-MB-468, 4 h) it was 3.16 to 31.6 nM.

`CO[C@H]1C[C@@H]2CC[C@@H](C)[C@@](O)(O2)C(=O)C(=O)N2CCCC[C@H]2C(=O)O[C@H]([C@H](C)C[C@@H]2CC[C@H](n3nncc3-c3cccc(-c4cn(CCOCCOCCOCCOCCOCCOCCOCCOCCC(=O)NCCCCn5nc(-c6ccc7oc(N)nc7c6)c6c(N)ncnc65)nn4)c3)[C@H](OC)C2)CC(=O)[C@H](C)/C=C(\C)[C@@H](O)[C@@H](OC)C(=O)[C@H](C)C[C@H](C)/C=C/C=C/C=C/1C` [Example 62]: the IC50 in assay [1] was more than 1000 nM; in assay [2] (MDA-MB-468, 4 h), more than 1000 nM; in assay [3] (MDA-MB-468, 4 h), more than 1000 nM.

In the case of `CO[C@H]1C[C@@H]2CC[C@@H](C)[C@@](O)(O2)C(=O)C(=O)N2CCCC[C@H]2C(=O)O[C@H]([C@H](C)C[C@@H]2CC[C@H](n3cc(-c4cccc(C(=O)NCCOCCOCCOCCOCCC(=O)NCCOCCOCCOCCOCCC(=O)NCCCCn5nc(-c6cc7cc(O)ccc7[nH]6)c6c(N)ncnc65)c4)nn3)[C@H](OC)C2)CC(=O)[C@H](C)/C=C(\C)[C@@H](O)[C@@H](OC)C(=O)[C@H](C)C[C@H](C)/C=C/C=C/C=C/1C` [Example 142], the IC50 in assay [1] was 1 to 10 nM; in assay [2] (MDA-MB-468, 4 h), 3.16 to 31.6 nM; in assay [3] (MDA-MB-468, 4 h) it was 31.6 to 1000 nM.

In the case of `CO[C@H]1C[C@@H]2CC[C@@H](C)[C@@](O)(O2)C(=O)C(=O)N2CCCC[C@H]2C(=O)O[C@H]([C@H](C)C[C@@H]2CC[C@@H](O)[C@H](OC)C2)C[C@@H](O)[C@H](C)/C=C(\C)[C@@H](O)[C@@H](OC)C(=NOCc2cn(CCOCCOCCOCCOCCOCCOCCOCCOCCC(=O)NCCCCn3nc(-c4ccc5oc(N)nc5c4)c4c(N)ncnc43)nn2)[C@H](C)C[C@H](C)/C=C/C=C/C=C/1C` [Example 50], the IC50 in assay [1] is 1 to 10 nM; in assay [2] (MDA-MB-468, 4 h), 3.16 to 31.6 nM; in assay [3] (MDA-MB-468, 4 h), 31.6 to 1000 nM.

Consider `CO[C@H]1C[C@@H]2CC[C@@H](C)[C@@](O)(O2)C(=O)C(=O)N2CCCC[C@H]2C(=O)O[C@H]([C@H](C)C[C@@H]2CC[C@@H](OC(=O)NCc3cn(CCOCCOCCOCCOCCOCCOCCOCCOCCC(=O)NCCCCn4nc(-c5ccc6oc(N)nc6c5)c5c(N)ncnc54)nn3)[C@H](OC)C2)CC(=O)[C@H](C)/C=C(\C)[C@@H](O)[C@@H](OC)C(=O)[C@H](C)C[C@H](C)/C=C/C=C/C=C/1C` [Example 61], for which the IC50 in assay [1] was 1 to 10 nM; in assay [2] (MDA-MB-468, 4 h) it was 3.16 to 31.6 nM; in assay [3] (MDA-MB-468, 4 h) it was 3.16 to 31.6 nM.

`CO[C@H]1C[C@@H]2CC[C@@H](C)[C@@](O)(O2)C(=O)C(=O)N2CCCC[C@H]2C(=O)O[C@H]([C@H](C)C[C@@H]2CC[C@@H](OCCCCc3cn(CCOCCOCCOCCOCCOCCOCCOCCOCCC(=O)N4CCc5cc(Cn6nc(-c7ccc8oc(N)nc8c7)c7c(N)ncnc76)ccc5C4)nn3)[C@H](OC)C2)C[C@@H](OC)[C@H](C)/C=C(\C)[C@@H](O)[C@@H](OC)C(=O)[C@H](C)C[C@H](C)/C=C/C=C/C=C/1C` [Example 92]: the results for the IC50 in assay [1], in assay [2] (4 h) and in assay [3] (4 h) were less than 1 nM, 3.16 to 31.6 nM and 31.6 to 1000 nM, respectively.

On to `CO[C@H]1C[C@@H]2CC[C@@H](C)[C@@](O)(O2)C(=O)C(=O)N2CCCC[C@H]2C(=O)O[C@H]([C@H](C)C[C@@H]2CC[C@H](n3cc(COC(=O)NCCOCCOCCOCCC(=O)NCCOCCOCCOCCOCCC(=O)NCCCCn4nc(-c5cc6cc(O)ccc6[nH]5)c5c(N)ncnc54)nn3)[C@H](OC)C2)CC(=O)[C@H](C)/C=C(\C)[C@@H](O)[C@@H](OC)C(=O)[C@H](C)C[C@H](C)/C=C/C=C/C=C/1C` [Example 126], for which the IC50 is 1 to 10 nM in assay [1]; 3.16 to 31.6 nM in assay [2] (MDA-MB-468, 4 h); 31.6 to 1000 nM in assay [3] (MDA-MB-468, 4 h).

Take `CO[C@H]1C[C@@H]2CC[C@@H](C)[C@@](O)(O2)C(=O)C(=O)N2CCCC[C@H]2C(=O)O[C@H]([C@H](C)C[C@@H]2CC[C@H](n3cc(COC(=O)NCCOCCOCCOCCOCCC(=O)NCCOCCOCCOCCOCCC(=O)NCCCCn4nc(-c5ccc6oc(N)nc6c5)c5c(N)ncnc54)nn3)[C@H](OC)C2)CC(=O)[C@H](C)/C=C(\C)[C@@H](O)[C@@H](OC)C(=O)[C@H](C)C[C@H](C)/C=C/C=C/C=C/1C` [Example 125]: the IC50 in assay [1] is 1 to 10 nM; in assay [2] (MDA-MB-468, 4 h) it was 3.16 to 31.6 nM; in assay [3] (MDA-MB-468, 4 h), 3.16 to 31.6 nM.

On to `CO/N=C1/C[C@@H]([C@H](C)C[C@@H]2CC[C@H](n3cc(CCCC(=O)NCCOCCOCCOCCC(=O)NCCOCCOCCC(=O)NCCCCn4nc(-c5cc6cc(O)ccc6[nH]5)c5c(N)ncnc54)nn3)[C@H](OC)C2)OC(=O)[C@@H]2CCCCN2C(=O)C(=O)[C@]2(O)O[C@@H](CC[C@H]2C)C[C@H](OC)/C(C)=C/C=C/C=C/[C@@H](C)C[C@@H](C)C(=O)[C@H](OC)[C@H](O)/C(C)=C/[C@H]1C` [Example 170], for which the IC50 in assay [1] was 10 to 1000 nM; in assay [2] (MDA-MB-468, 4 h), more than 1000 nM; in assay [3] (MDA-MB-468, 4 h) it was more than 1000 nM.

On to `CO[C@H]1C[C@@H]2CC[C@@H](C)[C@@](O)(O2)C(=O)C(=O)N2CCCC[C@H]2C(=O)O[C@H]([C@H](C)C[C@@H]2CC[C@@H](OCCCCc3cn(CCOCCOCCOCCOCCOCCOCCOCCOCCC(=O)NCCCCn4ncc5c(N)ncnc54)nn3)[C@H](OC)C2)CC(=O)[C@H](C)/C=C(\C)[C@@H](O)[C@@H](OC)C(=O)[C@H](C)C[C@H](C)/C=C/C=C/C=C/1C` [Example 5], for which the IC50 is less than 1 nM in assay [1]; 31.6 to 1000 nM in assay [2] (MDA-MB-468, 4 h); more than 1000 nM in assay [3] (MDA-MB-468, 4 h).
